# Columns and labels:
# healthy subjects = assay: Thorough QT study, categorical outliers and T-wave morphology
# Protocol: Categorical T-wave morphology analysis and measurement of PR and QRS intervals were fully performed manually using a semi-automated process in 3 of the 10 ECG replicates at each time point.
# Treatment A: 30 mg CIN-102 [representing approximate steady-state therapeutic exposures in subject population]; Treatment B: 100 mg CIN-102 [representing potential steady-state supratherapeutic exposures in subjects]; Treatment C: 400 mg open-label moxifloxacin; Treatment D: CIN-102 placebo. A subject can appear in more than 1 category. The denominator (Total) is defined as the number of subjects or time points in the QT/QTc population for each treatment.
# [1] = system: heart rate in healthy subjects; assay: Thorough QT study, placebo-corrected change-from-baseline HR (ΔΔHR); assay type: in vivo, human; details: 400 mg moxifloxacin (Treatment C)
# [2] = system: cardiac conduction (QRS interval) in healthy subjects; assay: Thorough QT study, placebo-corrected change-from-baseline QRS (ΔΔQRS); details: 400 mg moxifloxacin (Treatment C)
# Protocol: (§1) Categorical T-wave morphology analysis and measurement of PR and QRS intervals were fully performed manually using a semi-automated process in 3 of the 10 ECG replicates at each time point. Final quality control and diagnostic interpretations were performed by the study cardiologist.
# An unstructured covariance structure was used to specify the repeated measures at post-dose time points for subject within treatment period. The model also included a subject-specific random effect.
# [3] = system: cardiac repolarization (QTcF) in healthy subjects; details: human, in vivo
# From the text: The same linear model was used for moxifloxacin.
# The same linear model with a treatment effect-specific intercept as in the concentration-QTc analysis was used in the assay sensitivity analysis for moxifloxacin.
# [4] = Thorough QT study, plasma pharmacokinetics; assay type: in vivo, human; details: 400 mg single dose, healthy subjects
# From the text: Blood samples for PK determination were drawn at the same time points immediately after the ECG extractions.
# [5] = system: cardiac conduction (PR interval) in healthy subjects; assay: Thorough QT study, placebo-corrected change-from-baseline PR (ΔΔPR); details: 400 mg moxifloxacin (Treatment C)
# From the text: The secondary endpoints were: • Change-from-baseline QTcF, HR, PR, QRS intervals (ΔQTcF, ΔHR, ΔPR, and ΔQRS) • Placebo-corrected change-from-baseline HR, PR, and QRS (ΔΔHR, ΔΔPR, ΔΔQRS) • Categorical outliers for QTcF, HR, PR, and QRS • Frequency of treatment-emergent changes of T-wave morphology and U-waves presence
# as §1
# An unstructured covariance structure was used to specify the repeated measures at post-dose time points for subject within treatment period. The model also included a subject-specific random effect. Treatment A: 30 mg CIN-102 [representing approximate steady-state therapeutic exposures in subject population]; Treatment B: 100 mg CIN-102 [representing potential steady-state supratherapeutic exposures in subjects]; Treatment C: 400 mg open-label moxifloxacin
# [6] = system: cardiac repolarization (QTcF) in healthy subjects; assay: Thorough QT study, by-time point analysis of ΔΔQTcF; details: for ΔΔQTcF LS Mean: 400 mg moxifloxacin (Treatment C)
# Protocol: The primary objective of this study was to assess the effect of CIN-102 on cardiac repolarization based on baseline and placebo-corrected change in corrected QT interval using Fridericia's formula (QTcF) in healthy subjects using a concentration-QTc analysis (primary analysis). Serial ECGs were extracted from continuous ECG recordings at prespecified time points starting at least one hour prior to dosing and ending approximately 48 hours post-dose in each period.
# Primary analysis was based on concentration-QTc modeling of the relationship between plasma drug concentrations and change-from-baseline QTcF (ΔQTcF) with the intent to exclude an effect of placebo-corrected ΔQTcF (ΔΔQTcF) >10 milliseconds (ms) at clinically relevant plasma levels.
# The study was a randomized, partially double-blind, active- and placebo-controlled, single dose, four-period, crossover study in healthy subjects 18-55 years of age.
# In each treatment period, continuous 12-lead ECGs were recorded starting at least one hour prior to dosing and ending approximately 48 hours post-dose. Twelve-lead ECGs were extracted in up to 10 replicates at the central ECG laboratory (ERT, Philadelphia, PA) at the following time points in each period: at 3 time points within one hour prior to dosing (−45, −30 and −15 minutes) and at 0.5, 1, 1.5, 2, 2.5, 3, 4, 5, 6, 8, 12, 24, 36, and 48 hours after each dose. Subjects were supinely resting for at least 10 minutes before and 5 minutes after each time point. When ECG extractions coincided with safety, ECGs, vital signs assessment, and blood draws, procedures were carried out in said order. No PK or other laboratory draws were performed and the subject was not approached until at least 5 minutes had elapsed after the 5-minute window for 12-lead ECG extraction for QT analysis.
# ECG intervals were measured by the core laboratory in a blinded manner using the Early Precision QT technique (EPQT). The ECG database was locked before any statistical analysis was undertaken.
# At each nominal time point specified in the protocol, up to 10 ECG replicates were extracted with TQT Plus methods. All readable cardiac cycles from these ECG replicates were assessed for multiple quality metrics, including beat stability, HR changes, noise, and other parameters, and were categorized into high and low confidence rank. All low confidence beats were fully reviewed and adjudicated manually by ECG technicians using pass-fail criteria. The beats found acceptable by manual review were included in the analysis.
# An unstructured covariance structure was used to specify the repeated measures at post-dose time points for subject within treatment period. The model also included a subject-specific random effect. Treatment A: 30 mg CIN-102 [representing approximate steady-state therapeutic exposures in subject population] Treatment B: 100 mg CIN-102 [representing potential steady-state supratherapeutic exposures in subjects] Treatment C: 400 mg open-label moxifloxacin.
# [7] = 400 mg moxifloxacin (Treatment C), Total 51 subjects
# [8] = 400 mg moxifloxacin (Treatment C), Total 762 time points
# [9] = Treatment C: 400 mg open-label moxifloxacin, of 51 subjects
# [10] = Treatment C: 400 mg open-label moxifloxacin, of 762 time points
structure (smiles),measurement,setting,value
COc1c(N2C[C@@H]3CCCN[C@@H]3C2)c(F)cc2c(=O)c(C(=O)O)cn(C3CC3)c12 [moxifloxacin],"Subjects with QTcF >450 and <=480 ms, number",healthy subjects; [7],6
same,"Subjects with QTcF >450 and <=480 ms, percent",healthy subjects; [7],(11.8%)
same,"Subjects with QTcF >480 and <=500 ms, number",healthy subjects; [7],0
same,"Subjects with QTcF >500 ms, number",healthy subjects; [7],0
same,"Time points with QTcF >450 and <=480 ms, number",healthy subjects; [8],19
same,"Time points with QTcF >450 and <=480 ms, percent",healthy subjects; [8],(2.5%)
same,"Time points with QTcF >480 and <=500 ms, number",healthy subjects; [8],0
same,"Time points with QTcF >500 ms, number",healthy subjects; [8],0
same,subjects with QTcF >450 and <480 ms,"healthy subjects; 400 mg moxifloxacin, at 19 time points",6 subject(s)
same,"QTcF outliers per change-from-baseline category: QTcF >30 and <=60 ms, subjects",healthy subjects; [9],0
same,"QTcF outliers per change-from-baseline category: QTcF >60 ms, subjects",healthy subjects; [9],0
same,"QTcF outliers per change-from-baseline category: QTcF >30 and <=60 ms, time points",healthy subjects; [10],0
same,"QTcF outliers per change-from-baseline category: QTcF >60 ms, time points",healthy subjects; [10],0
same,subjects with treatment-emergent inverted T waves,"healthy subjects; moxifloxacin treatment period, at 1 time point",1 subject
same,ΔΔHR LS Mean,[1]; 0.5 H Post Dose,1.9 bpm
same,ΔΔHR LS Mean,[1]; 1 H Post Dose,2.2 bpm
same,ΔΔHR LS Mean,[1]; 1.5 H Post Dose,1.0 bpm
same,ΔΔHR LS Mean,[1]; 2 H Post Dose,1.3 bpm
same,ΔΔHR LS Mean,[1]; 2.5 H Post Dose,−0.3 bpm
same,ΔΔHR LS Mean,[1]; 3 H Post Dose,−0.0 bpm
same,ΔΔHR LS Mean,[1]; 4 H Post Dose,0.7 bpm
same,ΔΔHR LS Mean,[1]; 5 H Post Dose,−0.0 bpm
same,ΔΔHR LS Mean,[1]; 6 H Post Dose,−1.3 bpm
same,ΔΔHR LS Mean,[1]; 8 H Post Dose,0.7 bpm
same,ΔΔHR LS Mean,[1]; 12 H Post Dose,−1.9 bpm
same,ΔΔHR LS Mean,[1]; 24 H Post Dose,−0.1 bpm
same,ΔΔHR LS Mean,[1]; 36 H Post Dose,−0.3 bpm
same,ΔΔHR LS Mean,[1]; 48 H Post Dose,0.8 bpm
same,ΔΔQRS LS Mean,[2]; 0.5 H Post Dose,0.1 ms
same,ΔΔQRS LS Mean,[2]; 1 H Post Dose,0.5 ms
same,ΔΔQRS LS Mean,[2]; 1.5 H Post Dose,0.3 ms
same,ΔΔQRS LS Mean,[2]; 2 H Post Dose,0.4 ms
same,ΔΔQRS LS Mean,[2]; 2.5 H Post Dose,0.4 ms
same,ΔΔQRS LS Mean,[2]; 3 H Post Dose,0.6 ms
same,ΔΔQRS LS Mean,[2]; 4 H Post Dose,0.1 ms
same,ΔΔQRS LS Mean,[2]; 5 H Post Dose,0.7 ms
same,ΔΔQRS LS Mean,[2]; 6 H Post Dose,-0.1 ms
same,ΔΔQRS LS Mean,[2]; 8 H Post Dose,0.5 ms
same,ΔΔQRS LS Mean,[2]; 12 H Post Dose,0.1 ms
same,ΔΔQRS LS Mean,[2]; 24 H Post Dose,0.0 ms
same,ΔΔQRS LS Mean,[2]; 36 H Post Dose,0.5 ms
same,ΔΔQRS LS Mean,[2]; 48 H Post Dose,0.6 ms
same,lower bound of the 2-sided CI of the predicted QT effect,[3],above 5 ms
same,geometric mean peak moxifloxacin concentration,[4],1552.6 ng/mL
same,ΔΔPR LS Mean,[5]; 0.5 H Post Dose,-3.4 ms
same,ΔΔPR LS Mean,[5]; 1 H Post Dose,-2.9 ms
same,ΔΔPR LS Mean,[5]; 1.5 H Post Dose,-3.6 ms
same,ΔΔPR LS Mean,[5]; 2 H Post Dose,-2.5 ms
same,ΔΔPR LS Mean,[5]; 2.5 H Post Dose,-1.3 ms
same,ΔΔPR LS Mean,[5]; 3 H Post Dose,-2.7 ms
same,ΔΔPR LS Mean,[5]; 4 H Post Dose,-2.0 ms
same,ΔΔPR LS Mean,[5]; 5 H Post Dose,-2.0 ms
same,ΔΔPR LS Mean,[5]; 6 H Post Dose,-3.0 ms
same,ΔΔPR LS Mean,[5]; 8 H Post Dose,-0.9 ms
same,ΔΔPR LS Mean,[5]; 12 H Post Dose,-0.0 ms
same,ΔΔPR LS Mean,[5]; 24 H Post Dose,-2.5 ms
same,ΔΔPR LS Mean,[5]; 36 H Post Dose,0.9 ms
same,ΔΔPR LS Mean,[5]; 48 H Post Dose,-0.3 ms
same,peak LS mean ΔΔQTcF,"[6]; 400 mg oral moxifloxacin, 3 hours post-dose",13.3 ms
same,ΔΔQTcF LS Mean,[6]; 0.5 H Post Dose,5.8 ms
same,ΔΔQTcF LS Mean,[6]; 1 H Post Dose,12.2 ms
same,ΔΔQTcF LS Mean,[6]; 1.5 H Post Dose,10.9 ms
same,ΔΔQTcF LS Mean,[6]; 2 H Post Dose,11.3 ms
same,ΔΔQTcF LS Mean,[6]; 2.5 H Post Dose,11.7 ms
same,ΔΔQTcF LS Mean,[6]; 3 H Post Dose,13.3 ms
same,ΔΔQTcF LS Mean,[6]; 4 H Post Dose,12.1 ms
same,ΔΔQTcF LS Mean,[6]; 5 H Post Dose,10.3 ms
same,ΔΔQTcF LS Mean,[6]; 6 H Post Dose,7.5 ms
same,ΔΔQTcF LS Mean,[6]; 8 H Post Dose,8.9 ms
same,ΔΔQTcF LS Mean,[6]; 12 H Post Dose,8.2 ms
same,ΔΔQTcF LS Mean,[6]; 24 H Post Dose,4.0 ms
same,ΔΔQTcF LS Mean,[6]; 36 H Post Dose,3.0 ms
same,ΔΔQTcF LS Mean,[6]; 48 H Post Dose,2.6 ms
